Measured values reported in US4562204A, “Trans-Δ^2 -prostaglandin D derivatives, process for their preparation and compositions containing them” (Ono Pharmaceutical Co., Ltd., priority 1982, dated 1985).

Assays:
[1] = system: human myelogenous leukemic cells (HL-60); experiment: Inhibition of the proliferation of human myelogenous leukemic cells (HL-60), Trypan Blue staining; type: cell-based; conditions: HL-60, 96 h, 37° C., 4 days, relative to control (0.1% ethanol), read-out: Percent Inhibition of proliferation, HL-60 cells; for inhibition at 1 µg/mL: 1 μg/ml; for inhibition at 5 µg/mL: 5 μg/ml
Description: Test on the Inhibition of the Proliferation of Human Myelogenous Leukemic Cells (HL-60) Experimental method
The test on the inhibition of the proliferation of human myelogenous leukemic cells was conducted by a well known method. The human myelogenous leukemic cells (HL-60) were added to an RPMI culture solution containing 10% bovine fetal serum, the number of cells in the culture solution was adjusted to 1×10^5 cells/ml, a solution in ethanol of the compound under test was added to give a concentration of 5 μg/ml or 1 μg/ml, and the mixture was subjected to stationary culture at 37° C. for 4 days. As a control, a culture solution containing 0.1% of ethanol was similarly cultured. The culture solutions were stained by the Trypan Blue staining method and the surviving cell number was measured to determine the degree of inhibition relative to the control.

[2] = system: cells originated from human mouth tumour (KB-cells); experiment: Inhibition of the proliferation of cells originated from human mouth tumour (KB-cells), Trypan Blue staining; type: cell-based; conditions: 96 h, 37° C., 4 days, relative to control (0.1% ethanol), read-out: Percent Inhibition of proliferation, KB-cells; for inhibition at 1 µg/mL: 1 μg/ml; for inhibition at 5 µg/mL: 5 μg/ml
Description: Test on the Inhibition of the Proliferation of Cells Originated from Human Mouth Tumour (KB-cells) Experimental method
The test on the inhibition of the proliferation of cells originated from human mouth tumour was conducted by a well known method. The cells originated from human mouth tumour (KB-cells) were added to an Eagle's MEM culture solution containing 10% bovine fetal serum, the number of cells in the culture solution was adjusted to 1×10^5 cells/ml, a solution in ethanol of the compound under test was added to give a concentration of 5 μg/ml or 1 μg/ml, and the mixture was subjected to stationary culture at 37° C. for 4 days. As a control, a culture solution containing 0.1% of ethanol was similarly cultured. The culture solutions were stained by the Trypan Blue staining method and the surviving cell number was measured to determine the degree of inhibition relative to the control.

| Compound | inhibition at 1 µg/mL [1] [%] | inhibition at 5 µg/mL [1] [%] | inhibition at 1 µg/mL [2] [%] | inhibition at 5 µg/mL [2] [%] |
| --- | --- | --- | --- | --- |
| CCCCC[C@H](O)/C=C/[C@H]1C(=O)C[C@H](O)[C@@H]1C/C=C\C/C=C/C(=O)O [Trans-Δ^2 -PGD2, (2E,5Z,13E)-(9α,15S)-9,15-dihydroxy-11-oxoprosta-2,5,13-trienoic acid] | 0 | 19.4 | 2.1 | 17.9 |
| CCCCCC=CC=C1C(=O)C=C[C@@H]1C/C=C\C/C=C/C(=O)O [(2E,5Z,9Z,14EZ)-11-oxoprosta-2,5,9,12,14-pentaenoic acid] | 4.8 | 98.3 | 0 | 100 |
| CCCCC[C@H](O)/C=C/[C@H]1C(=O)C=C[C@@H]1C/C=C\C/C=C/C(=O)O [Trans-Δ^2-9-deoxy-Δ^9 -PGD2, (2E,5Z,9Z,13E)-(15S)-11-oxo-15-hydroxyprosta-2,5,9,13-tetraenoic acid] | 1.4 | 99 | 9.7 | 98.5 |
